Reference: patent publication US3984548A, “Substituted pyrido[1,2,3,-de]-1,4-benzoxazines as bactericides” (Riker Laboratories, Inc., priority 1974, dated 1976)

What was measured:
Type in all cases: cell-based
Parameters in all cases: key: +: active; -: inactive
Settings in all cases: agar plates, 1 to 100 milligrams/liter
Herellea vaginicola = experiment: standard plate dilution method, Herellea vaginicola
Method: (§1) The culture medium employed permits susceptibility testing of fastidious microorganisms towards antibiotics, sulfonamides and other chemotherapeutic agents. Tryptone soy agar (oxoid) of the following composition is the culture medium. In the test procedure, the amount of a compound required to give complete inhibition or no inhibition of the microbial growth on the agar plates was determined. The compound selected for evaluation is added to the agar medium to give concentrations of one, ten and one hundred milligrams per liter. A series of plates with these concentrations is prepared. Plates containing agar alone are included as controls. Ten percent horse serum is added to one series of such plates. Aliquots of broth culture of each of nine species of microorganisms are innoculated onto the agar plates containing the various compound concentrations and onto the control plates. The plates are incubated at 37° C. in a 10 percent carbon dioxide atmosphere for 18 to 25 hours. The microbial growth on each plate is read visually, and minimal inhibitory concentrations are recorded.

Mima polymorpha = experiment: standard plate dilution method, Mima polymorpha
Method: as §1

Staphylococcus aureus = experiment: standard plate dilution method, Staphylococcus aureus
Method: as §1

Streptococcus Sp = experiment: standard plate dilution method, Streptococcus sp.
Method: as §1

Bacillus Subtilus = experiment: standard plate dilution method, Bacillus subtilus
Method: as §1

Pseudmonas aeruginosa = experiment: standard plate dilution method, Pseudomonas aeruginosa
Method: as §1

Escherichia coli = experiment: standard plate dilution method, Escherichia coli
Method: as §1

| Compound | Microorganism HV (growth inhibition) (Herellea vaginicola) | Microorganism MP (growth inhibition) (Mima polymorpha) | Microorganism SA (growth inhibition) (Staphylococcus aureus) | Microorganism SS (growth inhibition) (Streptococcus Sp) | Microorganism BS (growth inhibition) (Bacillus Subtilus) | Microorganism PA (growth inhibition) (Pseudmonas aeruginosa) | Microorganism EC (growth inhibition) (Escherichia coli) |
| --- | --- | --- | --- | --- | --- | --- | --- |
| CCOC(=O)c1cn2c3c(cc(C)cc3c1=O)OCC2C (centres unmarked) [Example 1, ethyl 2,3-dihydro-3,9-dimethyl-7-oxo-7H-pyrido[1,2,3-de]-1,4-benzoxazine-6-carboxylate] | + | - | + | - | + | - | + |
| CCOC(=O)c1cn2c3c(cc(Cl)cc3c1=O)OCC2C (centres unmarked) [Example 4, ethyl 9-chloro-2,3-dihydro-3-methyl-7-oxo-7H-pyrido[1,2,3-de]-1,4-benzoxazine-6-carboxylate] | + | - | + | - | + | - | + |
| CCOC(=O)c1cn2c3c(ccc(F)c3c1=O)OCC2C (centres unmarked) [Example 5, ethyl 2,3-dihydro-8-fluoro-3-methyl-7-oxo-7H-pyrido[1,2,3-de]-1,4-benzoxazine-6-carboxylate] | + | - | - | - | + | - | + |
| CCOC(=O)c1cn2c3c(cc(F)cc3c1=O)OCC2C (centres unmarked) [Example 6, ethyl 2,3-dihydro-9-fluoro-3-methyl-7-oxo-7H-pyrido[1,2,3-de]-1,4-benzoxazine-6-carboxylate] | + | - | + | - | + | + | + |
| Cc1cc2c3c(c1)c(=O)c(C(=O)O)cn3C(C)CO2 (centres unmarked) [Example 16, 2,3-dihydro-3,9-dimethyl-7-oxo-7H-pyrido[1,2,3-de]-1,4-benzoxazine-6-carboxylic acid] | + | - | + | + | + | - | + |
| CC1COc2ccc(Cl)c3c(=O)c(C(=O)O)cn1c23 (centres unmarked) [Example 17, 8-chloro-2,3-dihydro-3-methyl-7-oxo-7H-pyrido[1,2,3-de]-1,4-benzoxazine-6-carboxylic acid] | + | - | - | + | + | - | + |
| O=C(O)c1cn2c3c(cccc3c1=O)OCC2 [Example 18, 2,3-dihydro-7-oxo-7H-pyrido[1,2,3-de]-1,4-benzoxazine-6-carboxylic acid] | - | - | - | - | + | - | - |
| CC1COc2cccc3c(=O)c(C(=O)O)cn1c23 (centres unmarked) [Example 19, 2,3-dihydro-3-methyl-7-oxo-7H-pyrido[1,2,3-de]-1,4-benzoxazine-6-carboxylic acid] | + | - | + | - | + | - | + |
| COc1cc2c3c(c1)c(=O)c(C(=O)O)cn3C(C)CO2 (centres unmarked) [Example 20, 2,3-dihydro-9-methoxy-3-methyl-7-oxo-7H-pyrido[1,2,3-de]-1,4-benzoxazine-6-carboxylic acid] | + | - | + | - | + | - | + |
| CC1COc2c(F)ccc3c(=O)c(C(=O)O)cn1c23 (centres unmarked) [Example 21, 2,3-dihydro-10-fluoro-3-methyl-7-oxo-7H-pyrido[1,2,3-de]-1,4-benzoxazine-6-carboxylic acid] | + | - | + | + | + | - | + |
| CC1COc2c(Cl)ccc3c(=O)c(C(=O)O)cn1c23 (centres unmarked) [Example 22, 10-chloro-2,3-dihydro-3-methyl-7-oxo-7H-pyrido[1,2,3-de]-1,4-benzoxazine-6-carboxylic acid] | + | + | + | + | + | + | + |
| CC1COc2cc(Cl)cc3c(=O)c(C(=O)O)cn1c23 (centres unmarked) [Example 23, 9-chloro-2,3-dihydro-3-methyl-7-oxo-7H-pyrido[1,2,3-de]-1,4-benzoxazine-6-carboxylic acid] | + | - | + | + | + | - | + |
| CC1COc2cc(F)cc3c(=O)c(C(=O)O)cn1c23 (centres unmarked) [Example 24, 9-fluoro-2,3-dihydro-3-methyl-7-oxo-7H-pyrido[1,2,3-de]-1,4-benzoxazine-6-carboxylic acid] | + | - | + | + | + | + | + |
| CC1COc2ccc(F)c3c(=O)c(C(=O)O)cn1c23 (centres unmarked) [Example 25, 8-fluoro-2,3-dihydro-3-methyl-7-oxo-7H-pyrido[1,2,3-de]-1,4-benzoxazine-6-carboxylic acid] | + | - | - | + | + | - | + |
| Cc1ccc2c3c1c(=O)c(C(=O)O)cn3C(C)CO2 (centres unmarked) [Example 26, 8-methyl-2,3-dihydro-3-methyl-7-oxo-7H-pyrido[1,2,3-de]-1,4-benzoxazine-6-carboxylic acid] | + | - | + | + | + | - | + |
| Cc1c(Cl)cc2c(=O)c(C(=O)O)cn3c2c1OCC3C (centres unmarked) [Example 34 (acid)] | + | + | + | + | + | + | + |
| CCOC(=O)c1cn2c3c(c(C)c(Cl)cc3c1=O)OCC2C (centres unmarked) [Example 34 (ester)] | + | + | + | + | + | + | + |
| Cc1cc(Cl)c2c3c1c(=O)c(C(=O)O)cn3C(C)CO2 (centres unmarked) [Example 37 (acid)] | + | + | + | + | + | + | + |
| CCOC(=O)c1cn2c3c(c(Cl)cc(C)c3c1=O)OCC2C (centres unmarked) [Example 37 (ester)] | - | - | - | - | + | - | - |
| CC1COc2c(Cl)cc([N+](=O)[O-])c3c(=O)c(C(=O)O)cn1c23 (centres unmarked) [Example 38 (acid)] | + | - | + | - | + | - | + |
